The target in this assay is PI3K isoform δ (Homo sapiens (Human), UniProt O00329). Briefly: TR-FRET assay of enzymatic activity of class I PI3K isoforms. Particulars: read-out: IC50 (nM) for PI3K isoform δ (Table 2); TR-FRET; 2× Km ATP, 2 μM PIP2; incubated for 30 minutes at 25° C.
Sequence of PI3K isoform δ (O00329 whole entry, canonical isoform): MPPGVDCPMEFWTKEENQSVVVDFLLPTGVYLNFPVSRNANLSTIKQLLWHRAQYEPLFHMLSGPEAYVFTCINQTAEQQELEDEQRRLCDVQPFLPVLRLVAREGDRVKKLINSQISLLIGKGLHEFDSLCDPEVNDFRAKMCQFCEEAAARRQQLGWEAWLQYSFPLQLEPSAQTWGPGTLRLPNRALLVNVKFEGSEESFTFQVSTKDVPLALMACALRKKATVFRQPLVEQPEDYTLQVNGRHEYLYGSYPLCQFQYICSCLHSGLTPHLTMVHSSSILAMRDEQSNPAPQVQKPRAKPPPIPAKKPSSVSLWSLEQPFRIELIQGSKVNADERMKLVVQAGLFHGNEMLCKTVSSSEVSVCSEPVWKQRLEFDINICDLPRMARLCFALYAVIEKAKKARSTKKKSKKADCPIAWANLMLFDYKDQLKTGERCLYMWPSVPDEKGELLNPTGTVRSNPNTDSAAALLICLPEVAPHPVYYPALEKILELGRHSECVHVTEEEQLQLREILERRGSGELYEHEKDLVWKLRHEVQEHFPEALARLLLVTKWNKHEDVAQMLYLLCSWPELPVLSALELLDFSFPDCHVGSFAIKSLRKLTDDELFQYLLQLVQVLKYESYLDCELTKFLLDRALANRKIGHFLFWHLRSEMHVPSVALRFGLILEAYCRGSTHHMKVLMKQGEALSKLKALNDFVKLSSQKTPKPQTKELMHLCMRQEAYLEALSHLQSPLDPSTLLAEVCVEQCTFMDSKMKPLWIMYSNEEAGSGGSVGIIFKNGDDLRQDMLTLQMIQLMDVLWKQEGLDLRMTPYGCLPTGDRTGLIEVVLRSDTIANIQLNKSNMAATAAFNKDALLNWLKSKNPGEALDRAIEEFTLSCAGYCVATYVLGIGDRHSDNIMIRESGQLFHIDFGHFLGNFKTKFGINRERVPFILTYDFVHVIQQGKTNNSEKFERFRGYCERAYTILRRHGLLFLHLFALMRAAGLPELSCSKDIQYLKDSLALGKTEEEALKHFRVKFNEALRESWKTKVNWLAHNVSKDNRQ
Sequence of PI3K isoform δ (P27986 whole entry partner, canonical isoform): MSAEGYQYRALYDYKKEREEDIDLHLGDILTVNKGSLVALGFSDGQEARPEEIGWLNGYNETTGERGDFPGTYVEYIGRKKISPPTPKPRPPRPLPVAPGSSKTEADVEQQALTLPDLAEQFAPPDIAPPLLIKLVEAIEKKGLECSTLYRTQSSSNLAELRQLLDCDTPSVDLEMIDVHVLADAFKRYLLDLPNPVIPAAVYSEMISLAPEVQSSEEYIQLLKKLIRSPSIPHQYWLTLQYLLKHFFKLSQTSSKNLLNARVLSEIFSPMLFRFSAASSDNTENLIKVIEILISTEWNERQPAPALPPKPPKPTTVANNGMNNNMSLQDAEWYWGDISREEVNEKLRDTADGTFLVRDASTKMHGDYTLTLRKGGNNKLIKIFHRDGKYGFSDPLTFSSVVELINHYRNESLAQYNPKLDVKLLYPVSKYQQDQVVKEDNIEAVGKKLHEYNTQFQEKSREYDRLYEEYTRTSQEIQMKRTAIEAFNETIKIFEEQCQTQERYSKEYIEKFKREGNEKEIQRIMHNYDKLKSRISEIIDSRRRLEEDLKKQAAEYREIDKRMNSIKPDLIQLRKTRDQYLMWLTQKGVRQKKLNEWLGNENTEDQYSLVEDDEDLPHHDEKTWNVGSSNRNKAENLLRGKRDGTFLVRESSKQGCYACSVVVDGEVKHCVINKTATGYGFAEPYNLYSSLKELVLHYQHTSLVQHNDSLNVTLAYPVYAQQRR

From the text: TR-FRET monitored the formation of 3,4,5-inositol triphosphate molecule that competed with fluorescently labeled PIP3 for binding to the GRP-1 pleckstrin homology domain protein. […] Class I PI3K isoforms were expressed and purified as heterodimeric recombinant proteins. All assay reagents and buffers for the TR-FRET assay were purchased from Millipore.

By IC50 is commonly meant the concentration that gives 50% inhibition. For `Cc1cccc2nc([C@@H](Nc3nc(N)nc(N)c3C#N)C3CC3)n(-c3cc(F)cc(F)c3)c(=O)c12` [Compound 12a, (S)-2,4-diamino-6-((cyclopropyl(3-(3,5-difluorophenyl)-5-methyl-4-oxo-3,4-dihydroquinazolin-2-yl)methyl)amino)pyrimidine-5-carbonitrile], the IC50 amounted to 1 nM.

(Values after patent US9765060B2 (Gilead Sciences, Inc., priority 2014, dated 2017).)
